Consider 4 molecules from US20040136926A1, “Intra-oral drug delivery system” (priority 2002, published 2004).

Assay [1] can be described thus: Peptide adsorption to hydroxyapatite (HAP) beads. The assay is classed as binding. The note with it: for K × 10^−5 (affinity coefficient) / N × 10^6 (adsorption parameter): adsorption to HAP, C/Q = 1/KN + C/N. The source says:
The extent to which the hybrid molecule gets adsorbed was examined using hydroxyapatite (HAP) beads as described previously (Raj, et al., supra, 1992).

Another assay relates to Candida albicans. As to the kind of experiment: Fungicidal activity of hybrid adsorbed HAP beads, fluorescent probes (membrane damage). It counts as cell-based. The note with it: hybrid adsorbed HAP surface, as a function of time. On the procedure: (§1) The fungicidal and bactericidal activity of the hybrid adsorbed HAP beads was determined using fluorescent probes. The increase in fluorescence as a function of microbial membrane damage was monitored. […] Candida albicans and Actinobacillus actinomycetemcomitans were used as the fungal and bacterial organisms, respectively.

The subject of assay [2] is Actinobacillus actinomycetemcomitans. As to the kind of experiment: Bactericidal activity of hybrid adsorbed HAP beads, fluorescent probes (membrane damage). To be noted: hybrid adsorbed HAP surface, as a function of time. The assay is classed as cell-based. On the procedure:
as §1

For assay [3] the following is noted: literature (Raj, et al., 1992); cited from earlier work.

Where a SMILES comes first, the peptide text is derived from it. Bridges are numbered along the chain shown (N, C = ends). Roman numbers before positions name the chains, in order. Where no end group is shown, it is not given here. [ ]: non-standard residue; d: D form. pS = N[C@@H](COP(=O)(O)O)C(=O)O

Take `CC[C@H](C)[C@@H]1NC(=O)[C@H](CCCNC(=N)N)NC(=O)[C@@H](NC(=O)[C@H](CC(C)C)NC(=O)[C@@H](N)CCCNC(=N)N)CSSC[C@@H](C(=O)N[C@@H](CCCNC(=N)N)C(=O)OC[C@H](NC(=O)[C@H](CC(=O)O)NC(=O)[C@H](CC(=O)O)NC(=O)[C@H](CC(=O)O)NC(=O)[C@H](CCC(=O)O)NC(=O)[C@@H](N)CCC(=O)O)C(=O)O)NC(=O)[C@H](C(C)C)NC(=O)[C@H](CCCNC(=N)N)NC(=O)[C@H]([C@@H](C)CC)NC(=O)[C@H](C(C)C)NC(=O)[C@H](C(C)C)NC1=O` [Hybrid] (I: H-RLCRIVVIRVCR / II: H-EEDDDS-OH; disulfide I:3-I:11; ester I:C-II:6; N-terminus assumed): the “K × 10^−5 (affinity coefficient)” value in assay [1] is given as 10.8 ± 1.8 liter mol^−1. For the same molecule, the “N × 10^6 (adsorption parameter)” value in assay [1] is 1.6 ± 0.2 mol m^−2. Also, in assay [1] (hydroxyapatite beads), the “Affinity for HAP (in words)” value is “quite comparable to salivary statherin”. The “Microbial membrane damage (increase in fluorescence) vs control HAP” value (in the assay on Candida albicans; in assay [2]) was “significantly caused microbial membrane damage” in each case.

As to “D-D-D-E-E-K-F-L-R-R-I-G-R-F-G (DDDEEKFLRRIGRFG) [SNA15, Analog of SN15]”, in assay [3], the “Affinity for HAP compared with whole statherin” value is “higher affinity for HAP than the whole molecule”.

“D-Sp-Sp-E-E-K-F-L-R-R-I-G-R-F-G (D[pS][pS]EEKFLRRIGRFG; UniProt P02808 20-34, looked up, fragment) [SN15, Amino-terminal 15-residue fragment of statherin]”: the “Affinity for HAP compared with whole statherin” value in assay [3] is given as “higher affinity for HAP than the whole molecule”.

In the case of “D-Sp-Sp-EEKFLRRIGRFGYGYGPYQPVPEQPLYPQPYQPQYQQYTF (D[pS][pS]EEKFLRRIGRFGYGYGPYQPVPEQPLYPQPYQPQYQQYTF; UniProt P02808 20-62, looked up) [Statherin, Salivary phosphorylated polypeptide, reference compound]”, in assay [1], the “K × 10^−5 (affinity coefficient)” value is listed as 11.1 ± 2.0 liter mol^−1 and the “N × 10^6 (adsorption parameter)” value is recorded as 0.9 ± 0.05 mol m^−2.
